Measured values as given in paper PMC9684079, “Pharmacological targeting of glutamatergic neurons within the brainstem for weight reduction” (Nature Metabolism, 2022).

Assays:
Assay in all cases: biochemical
Design in all cases: Cerep/Eurofins selectivity panel, receptors, channels and transporters, per cent inhibition at 10 uM
Conditions in all cases: read-out: % Inhibition
[1] = molecular target: T1, Transporter, Dopamine (DAT) (Homo sapiens, UniProt Q01959)
T1 construct: gene SLC6A3

Cannabinoid CB1 = molecular target: T2, Cannabinoid CB1 (Homo sapiens, UniProt P21554)
T2 construct: gene CNR1

Histamine H3 = molecular target: T3, Histamine H3 (Homo sapiens, UniProt Q9Y5N1)
T3 construct: gene HRH3

Adenosine A3 = molecular target: T4, Adenosine A3 (Homo sapiens, UniProt P0DMS8)
T4 construct: gene ADORA3

Muscarinic M1 = molecular target: T5, Muscarinic M1 (Homo sapiens, UniProt P11229)
T5 construct: gene CHRM1
T5 sequence (P11229 whole entry): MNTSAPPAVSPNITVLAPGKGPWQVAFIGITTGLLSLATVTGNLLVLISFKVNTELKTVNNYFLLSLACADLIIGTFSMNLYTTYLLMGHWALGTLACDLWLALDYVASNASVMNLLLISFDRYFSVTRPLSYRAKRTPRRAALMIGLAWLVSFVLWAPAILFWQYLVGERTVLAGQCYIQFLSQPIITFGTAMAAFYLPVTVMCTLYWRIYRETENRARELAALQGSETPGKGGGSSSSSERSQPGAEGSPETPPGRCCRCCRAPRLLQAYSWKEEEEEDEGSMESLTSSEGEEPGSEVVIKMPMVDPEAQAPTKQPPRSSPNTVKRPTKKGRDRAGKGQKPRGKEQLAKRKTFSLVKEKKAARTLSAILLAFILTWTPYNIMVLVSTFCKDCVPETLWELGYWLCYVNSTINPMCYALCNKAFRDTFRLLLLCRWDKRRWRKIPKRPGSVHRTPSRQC

Adenosine A2A = molecular target: T6, Adenosine A2A (Homo sapiens, UniProt P29274)
T6 construct: gene ADORA2A

Adrenergic β3 = molecular target: T7, Adrenergic β3 (Homo sapiens, UniProt P13945)
T7 construct: gene ADRB3

Cholecystokinin CCK1 = molecular target: T8, Cholecystokinin CCK1 (Homo sapiens, UniProt P32238)
T8 construct: gene CCKAR

Tachykinin NK1 = molecular target: T9, Tachykinin NK1 (Homo sapiens, UniProt P25103)
T9 construct: gene TACR1

Muscarinic M2 = molecular target: T10, Muscarinic M2 (Homo sapiens, UniProt P08172)
T10 construct: gene CHRM2
T10 sequence (P08172 whole entry): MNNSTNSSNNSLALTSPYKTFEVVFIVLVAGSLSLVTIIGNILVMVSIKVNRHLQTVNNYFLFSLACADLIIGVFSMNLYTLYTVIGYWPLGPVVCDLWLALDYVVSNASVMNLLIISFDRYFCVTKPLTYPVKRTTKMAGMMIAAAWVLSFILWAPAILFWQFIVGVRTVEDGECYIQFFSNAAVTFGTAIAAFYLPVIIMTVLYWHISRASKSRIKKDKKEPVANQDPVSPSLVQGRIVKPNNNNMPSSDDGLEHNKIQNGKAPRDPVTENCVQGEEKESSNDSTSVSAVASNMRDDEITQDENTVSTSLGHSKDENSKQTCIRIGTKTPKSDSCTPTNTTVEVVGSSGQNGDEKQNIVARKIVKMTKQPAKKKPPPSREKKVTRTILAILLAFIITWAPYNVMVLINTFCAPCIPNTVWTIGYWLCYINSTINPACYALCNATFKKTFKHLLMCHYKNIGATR

AdenosineA2B = molecular target: T11, AdenosineA2B (Homo sapiens, UniProt P29275)
T11 construct: gene ADORA2B

GABAB1A = molecular target: T12, GABAB1A (Homo sapiens, UniProt Q9UBS5)
T12 construct: gene GABBR1; isoform 1A

[2] = molecular target: T13, Transporter, Serotonin (SERT) (Homo sapiens, UniProt P31645)
T13 construct: gene SLC6A4

Tachykinin NK3 = molecular target: T14, Tachykinin NK3 (Homo sapiens, UniProt P29371)
T14 construct: gene TACR3
T14 sequence (P29371 whole entry): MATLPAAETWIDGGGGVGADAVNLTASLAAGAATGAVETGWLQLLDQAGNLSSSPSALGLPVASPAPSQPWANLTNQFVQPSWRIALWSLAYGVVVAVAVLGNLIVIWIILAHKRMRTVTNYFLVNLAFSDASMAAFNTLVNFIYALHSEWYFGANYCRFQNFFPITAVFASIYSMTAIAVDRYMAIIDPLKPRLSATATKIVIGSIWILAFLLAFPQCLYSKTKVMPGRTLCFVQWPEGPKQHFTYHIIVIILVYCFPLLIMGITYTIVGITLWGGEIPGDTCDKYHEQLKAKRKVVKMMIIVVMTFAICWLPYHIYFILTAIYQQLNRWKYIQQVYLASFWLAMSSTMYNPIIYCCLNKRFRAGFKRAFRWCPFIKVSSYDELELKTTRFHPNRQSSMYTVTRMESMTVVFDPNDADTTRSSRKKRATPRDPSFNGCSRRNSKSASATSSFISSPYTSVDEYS

Vasopressin V1a = molecular target: T15, Vasopressin V1a (Homo sapiens, UniProt P37288)
T15 construct: gene AVPR1A
T15 sequence (P37288 whole entry): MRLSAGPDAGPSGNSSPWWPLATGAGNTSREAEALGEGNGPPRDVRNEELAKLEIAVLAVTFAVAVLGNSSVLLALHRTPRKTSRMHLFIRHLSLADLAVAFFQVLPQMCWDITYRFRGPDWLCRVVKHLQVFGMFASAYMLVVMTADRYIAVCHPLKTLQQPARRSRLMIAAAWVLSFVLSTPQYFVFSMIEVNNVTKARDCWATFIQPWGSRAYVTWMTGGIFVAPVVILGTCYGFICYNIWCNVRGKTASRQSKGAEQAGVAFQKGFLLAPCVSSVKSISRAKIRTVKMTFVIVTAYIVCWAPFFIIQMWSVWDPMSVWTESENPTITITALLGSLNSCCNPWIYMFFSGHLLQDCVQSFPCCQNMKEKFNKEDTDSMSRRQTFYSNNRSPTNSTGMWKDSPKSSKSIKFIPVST

[3] = molecular target: T16, Transporter, Norepinephrine (NET) (Homo sapiens, UniProt P23975)
T16 construct: gene SLC6A2

Opiate μ(OP3, MOP) = molecular target: T17, Opiate μ(OP3, MOP) (Homo sapiens, UniProt P35372)
T17 construct: gene OPRM1

Dopamine D3 = molecular target: T18, Dopamine D3 (Homo sapiens, UniProt P35462)
T18 construct: gene DRD3

Bradykinin B2 = molecular target: T19, Bradykinin B2 (Homo sapiens, UniProt P30411)
T19 construct: gene BDKRB2

Estrogen ERβ = molecular target: T20, Estrogen ERβ (Homo sapiens, UniProt Q92731)
T20 construct: gene ESR2

Progesterone PR-B = molecular target: T21, Progesterone PR-B (Homo sapiens, UniProt P06401)
T21 construct: gene PGR; PR-B isoform
T21 sequence (P06401 whole entry, canonical isoform): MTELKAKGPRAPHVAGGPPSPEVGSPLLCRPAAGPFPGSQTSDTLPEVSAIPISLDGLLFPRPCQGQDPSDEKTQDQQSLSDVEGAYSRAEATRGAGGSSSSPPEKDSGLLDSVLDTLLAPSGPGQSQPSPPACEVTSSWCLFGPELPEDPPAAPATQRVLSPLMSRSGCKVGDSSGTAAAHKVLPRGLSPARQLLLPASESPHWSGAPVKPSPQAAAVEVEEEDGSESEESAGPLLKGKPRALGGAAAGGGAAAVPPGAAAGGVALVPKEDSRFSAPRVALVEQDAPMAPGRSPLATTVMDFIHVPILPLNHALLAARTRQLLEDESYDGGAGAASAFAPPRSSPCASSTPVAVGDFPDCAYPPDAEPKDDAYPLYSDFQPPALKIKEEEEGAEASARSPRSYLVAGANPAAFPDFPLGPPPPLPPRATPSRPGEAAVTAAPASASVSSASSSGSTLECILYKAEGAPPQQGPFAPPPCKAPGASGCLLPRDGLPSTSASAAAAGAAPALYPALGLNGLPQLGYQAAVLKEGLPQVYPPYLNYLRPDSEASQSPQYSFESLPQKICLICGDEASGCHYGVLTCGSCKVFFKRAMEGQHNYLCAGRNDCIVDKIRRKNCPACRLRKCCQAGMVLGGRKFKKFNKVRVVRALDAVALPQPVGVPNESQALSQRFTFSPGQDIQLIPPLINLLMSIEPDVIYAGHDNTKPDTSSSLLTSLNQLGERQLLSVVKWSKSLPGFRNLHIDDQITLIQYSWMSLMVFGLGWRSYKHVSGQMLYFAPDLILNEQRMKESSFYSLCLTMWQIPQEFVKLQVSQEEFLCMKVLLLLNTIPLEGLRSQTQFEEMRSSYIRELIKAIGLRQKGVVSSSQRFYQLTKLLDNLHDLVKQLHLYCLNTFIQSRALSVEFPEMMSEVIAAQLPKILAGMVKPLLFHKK

Muscarinic M3 = molecular target: T22, Muscarinic M3 (Homo sapiens, UniProt P20309)
T22 construct: gene CHRM3
T22 sequence (P20309 whole entry): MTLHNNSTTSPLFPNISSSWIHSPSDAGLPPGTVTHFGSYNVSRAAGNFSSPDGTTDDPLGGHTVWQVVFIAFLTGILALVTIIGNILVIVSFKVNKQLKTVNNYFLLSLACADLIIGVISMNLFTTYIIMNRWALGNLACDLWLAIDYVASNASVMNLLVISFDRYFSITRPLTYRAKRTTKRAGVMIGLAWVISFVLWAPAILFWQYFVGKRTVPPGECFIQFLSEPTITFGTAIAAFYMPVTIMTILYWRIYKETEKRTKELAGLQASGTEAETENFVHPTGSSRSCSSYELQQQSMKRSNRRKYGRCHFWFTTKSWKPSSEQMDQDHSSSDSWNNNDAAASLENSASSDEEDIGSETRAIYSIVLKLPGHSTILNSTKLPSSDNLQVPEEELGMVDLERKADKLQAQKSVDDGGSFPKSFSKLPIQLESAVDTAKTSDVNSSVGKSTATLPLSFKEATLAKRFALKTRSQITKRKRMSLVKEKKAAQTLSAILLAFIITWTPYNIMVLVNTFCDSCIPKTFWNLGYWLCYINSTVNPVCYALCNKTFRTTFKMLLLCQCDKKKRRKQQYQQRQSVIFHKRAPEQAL

[4] = molecular target: T23, Serotonin (5-Hydroxytryptamine) 5-HT2B (Homo sapiens, UniProt P41595)
T23 construct: gene HTR2B

Adrenergic β2 = molecular target: T24, Adrenergic β2 (Homo sapiens, UniProt P07550)
T24 construct: gene ADRB2
T24 sequence (P07550 whole entry): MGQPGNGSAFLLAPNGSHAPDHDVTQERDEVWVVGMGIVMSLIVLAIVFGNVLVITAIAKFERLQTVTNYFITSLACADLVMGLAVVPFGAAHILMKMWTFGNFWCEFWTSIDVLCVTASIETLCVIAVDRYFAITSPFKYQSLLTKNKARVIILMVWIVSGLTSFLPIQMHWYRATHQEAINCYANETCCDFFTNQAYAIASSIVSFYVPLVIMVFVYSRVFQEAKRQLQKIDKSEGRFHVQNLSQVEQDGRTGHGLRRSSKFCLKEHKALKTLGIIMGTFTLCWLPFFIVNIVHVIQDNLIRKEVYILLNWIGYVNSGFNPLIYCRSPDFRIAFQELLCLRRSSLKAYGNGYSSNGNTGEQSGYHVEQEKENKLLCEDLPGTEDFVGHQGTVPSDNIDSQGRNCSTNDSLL

Histamine H2 = molecular target: T25, Histamine H2 (Homo sapiens, UniProt P25021)
T25 construct: gene HRH2
T25 sequence (P25021 whole entry): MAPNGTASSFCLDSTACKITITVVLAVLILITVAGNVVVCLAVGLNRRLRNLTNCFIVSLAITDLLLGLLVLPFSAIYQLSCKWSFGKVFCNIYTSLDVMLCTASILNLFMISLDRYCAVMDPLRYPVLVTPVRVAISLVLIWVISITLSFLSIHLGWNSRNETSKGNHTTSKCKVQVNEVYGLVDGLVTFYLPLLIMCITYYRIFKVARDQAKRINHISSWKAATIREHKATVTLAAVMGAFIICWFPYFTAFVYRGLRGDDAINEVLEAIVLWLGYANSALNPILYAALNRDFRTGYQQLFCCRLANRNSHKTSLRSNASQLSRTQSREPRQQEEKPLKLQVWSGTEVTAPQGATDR

T1 sequence (Q01959 whole entry): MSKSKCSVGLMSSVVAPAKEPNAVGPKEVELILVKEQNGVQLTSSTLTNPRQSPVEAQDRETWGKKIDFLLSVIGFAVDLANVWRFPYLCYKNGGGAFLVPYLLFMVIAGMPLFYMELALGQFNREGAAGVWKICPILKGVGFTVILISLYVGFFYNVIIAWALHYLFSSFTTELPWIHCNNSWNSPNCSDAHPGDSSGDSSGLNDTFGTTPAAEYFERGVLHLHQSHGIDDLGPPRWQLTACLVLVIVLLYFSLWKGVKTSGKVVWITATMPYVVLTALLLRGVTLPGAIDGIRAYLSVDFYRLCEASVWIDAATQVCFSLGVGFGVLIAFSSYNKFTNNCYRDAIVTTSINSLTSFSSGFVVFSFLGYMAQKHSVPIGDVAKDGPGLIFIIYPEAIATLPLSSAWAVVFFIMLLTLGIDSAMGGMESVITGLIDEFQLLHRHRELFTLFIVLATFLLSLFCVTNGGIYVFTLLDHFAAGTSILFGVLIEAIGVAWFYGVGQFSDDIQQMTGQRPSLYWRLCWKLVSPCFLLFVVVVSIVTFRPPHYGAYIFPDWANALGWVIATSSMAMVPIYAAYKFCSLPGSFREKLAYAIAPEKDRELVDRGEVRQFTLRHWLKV

For `C[C@]1(Nc2cnc(C(F)(F)F)cn2)CCC[C@@H]1NC(=O)c1ncccc1-n1nccn1` [CVN45502], the inhibition at 10 µM [1] was 4%, the inhibition at 10 µM (Cannabinoid CB1) was 8% and the inhibition at 10 µM (Histamine H3) was -4%. It also gave an inhibition at 10 µM (Adenosine A3) of -2%, an inhibition at 10 µM (Muscarinic M1) of -1% and an inhibition at 10 µM (Adenosine A2A) of 2%. It also gave an inhibition at 10 µM (Adrenergic β3) of 0%, an inhibition at 10 µM (Cholecystokinin CCK1) of -18% and an inhibition at 10 µM (Tachykinin NK1) of 12%. For the same compound, the inhibition at 10 µM (Muscarinic M2) was -7%, the inhibition at 10 µM (AdenosineA2B) was -7% and the inhibition at 10 µM (GABAB1A) was -8%. For the same compound, the inhibition at 10 µM [2] was 7%, the inhibition at 10 µM (Tachykinin NK3) was 27% and the inhibition at 10 µM (Vasopressin V1a) was -14%. It also gave an inhibition at 10 µM [3] of -6%, an inhibition at 10 µM (Opiate μ(OP3, MOP)) of -3% and an inhibition at 10 µM (Dopamine D3) of -2%. It also gave an inhibition at 10 µM (Bradykinin B2) of -18%, an inhibition at 10 µM (Estrogen ERβ) of 4% and an inhibition at 10 µM (Progesterone PR-B) of 21%. For the same compound, the inhibition at 10 µM (Muscarinic M3) was -1%, the inhibition at 10 µM [4] was 4% and the inhibition at 10 µM (Adrenergic β2) was 0%. For the same compound, the inhibition at 10 µM (Histamine H2) was -14%.
